This is an account of results in article PMC8066331, “Anticancer Activity of Triazolo-Thiadiazole Derivatives and Inhibition of AKT1 and AKT2 Activation” (Pharmaceutics, 2021).

In experiment [1] the test system is SKOV-3. In words: MTT in vitro antiproliferative assay, SKOV-3. The following applies: Homo sapiens, SK-OV-3, 48 h; for IC (TGI): read-out: TGI. The format is cell-based. An excerpt: (§1) The in vitro antiproliferative activities of the novel triazolo[3,4-b]thiadiazole derivatives were estimated in ten well-established human cancer cell lines including three ovarian (SKOV-3, UWB 1.289, and UWB 1.289+BRCA1), five colorectal adenocarcinoma (DLD-1, HT-29, LS174T, LoVo, and SW403), and two prostate cancer cell lines (PC-3 and DU-145). All cancer cell lines were obtained from the American Type Culture Collection (ATCC) and cultivated in different culture media according to the instructions. The required growth mediums were supplemented with 10% fetal bovine serum and 1% streptomycin/penicillin. All cancer cell lines were cultured as monolayers and maintained at 37 °C, 5% CO2 in humidified air.
(§2) Stock solutions of all tested compounds were prepared by dissolving the required amount of substances in the DMSO solvent to reach the desired concentration of 15 mM.
(§3) To evaluate the in vitro antiproliferative activity of the triazolo[3,4-b]thiadiazole derivatives, 3-(4,5-dimethylthiazol-2-yl)-2,5-diphenyltetrazolium bromide (MTT) assay was assessed. According to the protocol, cells were firstly seeded into a 96-well plate at a density of 8 × 10^3 cells and grown for 24 h at 37 °C, 5% CO2 in humidified air. Subsequently, cells were treated with the tested compounds in a specific range of drug concentrations (1–100 μΜ). Following 48 h of drug exposure, the culture media were discarded and replaced with 100 μL of fresh medium. Afterwards, 50 μL of dissolved MTT in phosphate-buffered saline (PBS) solution (5 mg/mL) were added in each well and cells were incubated for 3 h at 37 °C, 5% CO2 in humidified air. Incubation time was followed by MTT discard and the addition of 100 μL of DMSO solvent so that the formazan crystals could be dissolved. The absorbance of the converted dye was immediately measured at a wavelength of 540 nm on an ELISA reader (VersaMax Microplate Reader, Orleans, CA, USA).
(§4) The in vitro anticancer effect of a tested compound on cell viability was determined by three dose–response parameters termed GI50, TGI, and IC50. More specifically, the GI50 value indicates the required concentration of the compound that impels 50% cell growth inhibition, the TGI value corresponds to the concentration that induces 100% cell growth inhibition, and the IC50 value is the concentration that causes 50% cell death. The two parameters GI50 and TGI represent the cytostatic activity, whereas IC50 reflects the cytotoxic effect of a drug. To estimate the three parameters, nine absorbance measurements were required including control 24 h (Ct24), control 72 h (Ct72), and the mean of cell survival in all seven drug concentrations (Tt72). The percentage growth inhibition was calculated according to National Cancer Institute’s (NCI) protocol: [(Tt72x) − (Ct24)/(Ct72) − (Ct24)] × 100 for concentrations for which Tt72x > Ct24 and [(Tt72x) − (Ct24)/Ct24] × 100 for concentrations for which Tt72x < Ct24. GI50 was calculated from [(Tt72x) − (Ct24)/(Ct72) − (Ct24)] × 100 = 50, TGI was calculated from [(Tt72x) − (Ct24)/(Ct72) − (Ct24)] × 100 = 0, and IC50 was calculated from [(Tt72x) − (Ct24)/Ct24] × 100 = 50. All the experiments were carried out in triplicate.

Experiment [2] relates to DU-145. In words: MTT in vitro antiproliferative assay, DU-145. Type of experiment: cell-based, human. The following applies: for TGI: DU-145, MTT, 48 h drug exposure; for GI50 / IC50: Homo sapiens, DU-145, 48 h.
Source text: as §1, §2, §3, §4

In experiment [3] the test system is HT-29. In words: MTT in vitro antiproliferative assay, HT-29. The following applies: for TGI: HT-29, MTT, 48 h drug exposure; for GI50 / IC50: Homo sapiens, HT-29, 48 h. The format is cell-based, human.
Source text: as §1, §2, §3, §4

The test system of experiment [4] is PC-3. Briefly: MTT in vitro antiproliferative assay, PC-3. The format is cell-based. The following applies: Homo sapiens, PC-3, 48 h; for IC (TGI): read-out: TGI.
Source text: as §1, §2, §3, §4

In experiment [5] the test system is DLD-1. Briefly: MTT in vitro antiproliferative assay, DLD-1. The format is cell-based, human. The following applies: DLD-1, MTT; for TGI / GI50: 48 h drug exposure; for IC50 / GI50: Homo sapiens; for IC50: 48 h, 50% cell death.
Source text: as §1, §2, §3, §4

With `COc1cc(Cc2nnc3sc(-c4cc([N+](=O)[O-])ccc4[N+](=O)[O-])nn23)c(S(=O)(=O)N(C(C)C)C(C)C)cc1OC` [Compound 7d, 2-((6-(2,5-dinitrophenyl)-[1,2,4]triazolo[3,4-b][1,3,4]thiadiazol-3-yl)methyl)-N,N-diisopropyl-4,5-dimethoxybenzenesulfonamide], the GI50 in experiment [1] came to 13 ± 0.5 µM; in experiment [2], 6.8 ± 0.8 µM; in experiment [3] it was 17.9 ± 2.51 µM; in experiment [4], 8 ± 1 µM; in experiment [5], 7.3 ± 0.75 µM. In addition, the IC50 stood at 23 ± 1.4 µM in experiment [1]; 21.3 ± 0.9 µM in experiment [2]; 40 ± 1 µM in experiment [3]; 22 ± 0.3 µM in experiment [4]; 22 ± 1 µM in experiment [5]. The IC (TGI) in experiment [1] was found to be 17 ± 1 µM; in experiment [4] it was 11 ± 1.04 µM. Moreover, the TGI in experiment [2] was found to be 14 ± 0.5 μΜ; in experiment [3] it was 26 ± 1.52 μΜ; in experiment [5] it was 12 ± 0.5 μΜ.
For `CCN(CC)S(=O)(=O)c1cc(OC)c(OC)cc1Cc1nnc2sc(-c3cc([N+](=O)[O-])ccc3[N+](=O)[O-])nn12` [Compound 6e, 2-((6-(2,5-dinitrophenyl)-[1,2,4]triazolo[3,4-b][1,3,4]thiadiazol-3-yl)methyl)-N,N-diethyl-4,5-dimethoxybenzenesulfonamide], the GI50 in experiment [1] was determined as 18 ± 0.7 µM; in experiment [2], 13 ± 0.5 µM; in experiment [3], 18 ± 1 µM; in experiment [4], 11 ± 1 µM; in experiment [5], 25 ± 2 µM. In addition, the IC50 in experiment [1] was determined as 38 ± 1.8 µM; in experiment [2], 28 ± 0.2 µM; in experiment [3], 44 ± 1 µM; in experiment [4], 26.5 ± 0.9 µM; in experiment [5] it was 53.6 ± 1.05 µM. Moreover, the IC (TGI) was 24 ± 1.2 µM in experiment [1] and 17 ± 1 µM in experiment [4]. For the same compound, the TGI was determined as 18.3 ± 0.2 μΜ in experiment [2], 29 ± 0.5 μΜ in experiment [3] and 37 ± 2.0 μΜ in experiment [5].
